How the values were obtained:
[1] = test system: ECFC/ADSC co-culture cell nuclei number
[2] = test system: HT-29; experiment: cells; type: cell-based
[3] = test system: HCT116; experiment: cells; type: cell-based; details: basal
[4] = test system: SW480; experiment: cells; type: cell-based; details: for Basal_Viability ATP SW480 IC50/EC50: assay number 24
[5] = test system: endothelial tube formation in co-cultures of ECFCs and ADSCs treated with VEGF; experiment: cells; type: cell-based, human
[6] = test system: Colo320; experiment: cells; type: cell-based
[7] = test system: HCT116 cells treated with a GSK3β inhibitor; experiment: cells; type: cell-based; details: for IC50/EC50, GSK3b inh pretreated_Viability ATP HCT116 (assay number 26): GSK3b inh pretreated
[8] = test system: RKO; experiment: cells; type: cell-based
[9] = test system: DLD-1; experiment: cells; type: cell-based
[10] = test system: SNU-C1; experiment: cells; type: cell-based
[11] = assay number 26, GSK3b inhibitor pretreated

With `CSc1ccc(/C=C2/C(C)=C(CC(=O)O)c3cc(F)ccc32)cc1` [NCGC00161601-02] the “IC50/EC50, VEGF_ADSC\ECFC Angio Hoechst NucArea (assay number 3)” value [1] was greater than 10 µM, the “IC50/EC50, Basal_Viability ATP HT-29 (assay number 28)” value ([2]; basal) was greater than 20 µM and the “IC50/EC50, Basal_Viability ATP HCT116 (assay number 25)” value [3] was greater than 20 µM. The “IC50/EC50, Basal_Viability ATP SW480 (assay number 24)” value ([4]; basal) was 19.964 µM, the “IC50/EC50, VEGF_ADSC\ECFC Angio CD31 TubeArea (assay number 2)” value [5] was greater than 10 µM and the “IC50/EC50, Basal_Viability ATP Colo 320 (assay number 27)” value ([6]; basal) was greater than 20 µM. The “IC50/EC50, GSK3b inh pretreated_Viability ATP HCT116 (assay number 26)” value [7] was greater than 20 µM, the “IC50/EC50, Basal_Viability ATP RKO (assay number 29)” value ([8]; basal) was greater than 20 µM and the “IC50/EC50, Basal_Viability ATP DLD-1 (assay number 23)” value ([9]; basal) was greater than 20 µM. For the same compound, the “IC50/EC50, Basal_Viability ATP SNU-C1 (assay number 30)” value ([10]; basal) was 11.9864 µM.

In the case of `CCC(C(=O)OCCOCCN(CC)CC)c1ccccc1.O=C(O)CC(O)(CC(=O)O)C(=O)O` (stereo not drawn) [NCGC00160645-02], the “VEGF_ADSC\ECFC Angio Hoechst NucArea IC50/EC50” value [1] is reported as greater than 10 µM, the “Basal_Viability ATP HT-29 IC50/EC50” value ([2]; assay number 28, basal) is reported as greater than 20 µM and the “Basal_Viability ATP HCT116 IC50/EC50” value ([3]; assay number 25) is reported as greater than 20 µM. The “Basal_Viability ATP SW480 IC50/EC50” value ([4]; basal) was greater than 20 µM, the “VEGF_ADSC\ECFC Angio CD31 TubeArea IC50/EC50” value [5] was greater than 10 µM and the “Basal_Viability ATP Colo 320 IC50/EC50” value ([6]; assay number 27, basal) was greater than 20 µM. For the same compound, the “GSK3b inh pretreated_Viability ATP HCT116 IC50/EC50” value [7, 11] was greater than 20 µM, the “Basal_Viability ATP RKO IC50/EC50” value ([8]; assay number 29, basal) was greater than 20 µM and the “Basal_Viability ATP DLD-1 IC50/EC50” value ([9]; assay number 23, basal) was greater than 20 µM. For the same compound, the “Basal_Viability ATP SNU-C1 IC50/EC50” value ([10]; assay number 30, basal) was greater than 20 µM.

`COC(=O)C1=C(C)NC(C)=C(C(=O)O[C@@H]2CCCN(Cc3ccccc3)C2)[C@@H]1c1cccc([N+](=O)[O-])c1.Cl` [NCGC00185768-01] was tested, and the “VEGF_ADSC\ECFC Angio Hoechst NucArea IC50/EC50” value [1] was greater than 10 µM, the “Basal_Viability ATP HT-29 IC50/EC50” value ([2]; assay number 28) was 5.2728 µM and the “Basal_Viability ATP HCT116 IC50/EC50” value ([3]; assay number 25) was 4.2797 µM. For the same compound, the “Basal_Viability ATP SW480 IC50/EC50” value [4] was greater than 20 µM, the “VEGF_ADSC\ECFC Angio CD31 TubeArea IC50/EC50” value [5] was greater than 10 µM and the “Basal_Viability ATP Colo 320 IC50/EC50” value ([6]; assay number 27) was 19.5148 µM. The “GSK3b inh pretreated_Viability ATP HCT116 IC50/EC50” value [7, 11] was 5.3147 µM, the “Basal_Viability ATP RKO IC50/EC50” value ([8]; assay number 29) was 8.0546 µM and the “Basal_Viability ATP DLD-1 IC50/EC50” value ([9]; assay number 23) was 7.9596 µM. The “Basal_Viability ATP SNU-C1 IC50/EC50” value ([10]; assay number 30) was 5.7601 µM.

`CCCCC[C@@H](O)CC[C@H]1[C@@H]2Cc3cccc(OCC(=O)O)c3C[C@@H]2C[C@@H]1O` [NCGC00319020-01] was tested, and the “VEGF_ADSC\ECFC Angio Hoechst NucArea IC50/EC50” value [1] was greater than 10 µM, the “Basal_Viability ATP HT-29 IC50/EC50” value ([2]; assay number 28, basal) was greater than 20 µM and the “Basal_Viability ATP HCT116 IC50/EC50” value ([3]; assay number 25) was greater than 20 µM. For the same compound, the “Basal_Viability ATP SW480 IC50/EC50” value ([4]; basal) was greater than 20 µM, the “VEGF_ADSC\ECFC Angio CD31 TubeArea IC50/EC50” value [5] was greater than 10 µM and the “Basal_Viability ATP Colo 320 IC50/EC50” value ([6]; assay number 27, basal) was greater than 20 µM. For the same compound, the “GSK3b inh pretreated_Viability ATP HCT116 IC50/EC50” value [7, 11] was greater than 20 µM, the “Basal_Viability ATP RKO IC50/EC50” value ([8]; assay number 29, basal) was greater than 20 µM and the “Basal_Viability ATP DLD-1 IC50/EC50” value ([9]; assay number 23, basal) was greater than 20 µM. For the same compound, the “Basal_Viability ATP SNU-C1 IC50/EC50” value ([10]; assay number 30, basal) was greater than 20 µM.

With `CC(CC=O)CCCC(C)(C)O` (stereo not drawn) [NCGC00181031-03] the “VEGF_ADSC\ECFC Angio Hoechst NucArea IC50/EC50” value [1] was greater than 10 µM, the “Basal_Viability ATP HT-29 IC50/EC50” value ([2]; assay number 28, basal) was greater than 20 µM and the “Basal_Viability ATP HCT116 IC50/EC50” value ([3]; assay number 25) was greater than 20 µM. For the same compound, the “Basal_Viability ATP SW480 IC50/EC50” value ([4]; basal) was greater than 20 µM, the “VEGF_ADSC\ECFC Angio CD31 TubeArea IC50/EC50” value [5] was greater than 10 µM and the “Basal_Viability ATP Colo 320 IC50/EC50” value ([6]; assay number 27, basal) was greater than 20 µM. The “GSK3b inh pretreated_Viability ATP HCT116 IC50/EC50” value [7, 11] was greater than 20 µM, the “Basal_Viability ATP RKO IC50/EC50” value ([8]; assay number 29, basal) was greater than 20 µM and the “Basal_Viability ATP DLD-1 IC50/EC50” value ([9]; assay number 23, basal) was greater than 20 µM. For the same compound, the “Basal_Viability ATP SNU-C1 IC50/EC50” value ([10]; assay number 30, basal) was greater than 20 µM.

For `CC/C=C\C/C=C\C/C=C\CCCCCCCC(=O)O` [NCGC00091058-11], the “IC50/EC50, VEGF_ADSC\ECFC Angio Hoechst NucArea (assay number 3)” value [1] was greater than 10 µM, the “IC50/EC50, Basal_Viability ATP HT-29 (assay number 28)” value ([2]; basal) was greater than 20 µM and the “IC50/EC50, Basal_Viability ATP HCT116 (assay number 25)” value [3] was greater than 20 µM. For the same compound, the “IC50/EC50, Basal_Viability ATP SW480 (assay number 24)” value ([4]; basal) was greater than 20 µM, the “IC50/EC50, VEGF_ADSC\ECFC Angio CD31 TubeArea (assay number 2)” value [5] was greater than 10 µM and the “IC50/EC50, Basal_Viability ATP Colo 320 (assay number 27)” value ([6]; basal) was greater than 20 µM. For the same compound, the “IC50/EC50, GSK3b inh pretreated_Viability ATP HCT116 (assay number 26)” value [7] was greater than 20 µM, the “IC50/EC50, Basal_Viability ATP RKO (assay number 29)” value ([8]; basal) was greater than 20 µM and the “IC50/EC50, Basal_Viability ATP DLD-1 (assay number 23)” value ([9]; basal) was greater than 20 µM. The “IC50/EC50, Basal_Viability ATP SNU-C1 (assay number 30)” value ([10]; basal) was greater than 20 µM.

`Cc1ccc2c(Br)cc(Br)c(O)c2n1` [NCGC00160566-02] showed an IC50 ([1]; read-out: VEGF_ADSC\ECFC Angio Hoechst NucArea summarized IC50) greater than 10 µM, an IC50 ([2]; assay number 28, basal, read-out: Basal_Viability ATP HT-29 summarized IC50) greater than 6.67 µM and an IC50 ([3]; assay number 25, read-out: Basal_Viability ATP HCT116 summarized IC50) of 1.16 µM. The IC50 ([5]; read-out: VEGF_ADSC\ECFC Angio CD31 TubeArea summarized IC50) was greater than 10 µM, the IC50 ([6]; assay number 27, basal, read-out: Basal_Viability ATP Colo 320 summarized IC50) was 0.001 µM and the IC50 ([7]; assay number 26, GSK3b inhibitor pretreated, read-out: GSK3b inh pretreated_Viability ATP HCT116 summarized IC50) was 1.03 µM. For the same compound, the IC50 ([8]; assay number 29, basal, read-out: Basal_Viability ATP RKO summarized IC50) was 0.311 µM, the IC50 ([9]; assay number 23, basal, read-out: Basal_Viability ATP DLD-1 summarized IC50) was 4.77 µM and the IC50 ([10]; assay number 30, basal, read-out: Basal_Viability ATP SNU-C1 summarized IC50) was 12.8 µM.

— paper PMC4503722, “Novel Phenotypic Outcomes Identified for a Public Collection of Approved Drugs from a Publicly Accessible Panel of Assays” (PLoS ONE, 2015)
